The structures appear in SMILES notation. Read-outs that look alike come from different tables or passages of the source.

The nature of data set [1]: Phase 1 clinical PK studies of tegoprazan alone in healthy male adults (observed). As to conditions: human, urine and plasma, single oral dose 100 mg, read-out: CLR (renal clearance) (converted). Type of data set: in vivo. The protocol:
(§1) The established PBPK model was verified by applying the predicted values to the clinical PK data from various phase 1 studies conducted with healthy male adults (Supplementary Table S2). Brief information about the clinical studies follows: study 1 (single-dose PK study), a single dose of tegoprazan 25 mg and 50 mg was orally administered; study 2 (food effect study), a single dose of tegoprazan 50 mg was orally administered in both fasted and fed states; study 3 (bioequivalence study of two formulations), a single dose of two different formulations with tegoprazan 100 mg was orally administered; study 4 (multiple-dose PK study), multiple doses of tegoprazan 50 mg and 100 mg were orally administered once daily for 7 days; study 5 (DDI study with clarithromycin), multiple doses of tegoprazan 200 mg were orally administered once daily with or without multiple doses of clarithromycin 500 mg twice daily for 5 days; and study 6 (DDI study with clarithromycin and amoxicillin), multiple doses of tegoprazan 100 mg were orally administered twice daily with or without multiple doses of clarithromycin/amoxicillin 500/1000 mg twice daily for 5 days or 7 days.

For data set [2] the following is noted: cited from earlier work; for AUCτ Obs. / Cmax Obs.: mean; for Tmax Obs.: median.
A short description of data set [3]: Clinical DDI studies of tegoprazan with clarithromycin or clarithromycin/amoxicillin (observed). Type of data set: in vivo, human. The protocol:
as §1
After refining and verifying the PBPK model of tegoprazan as a single agent, the DDI between tegoprazan and clarithromycin was finally verified using data from DDI clinical studies. To verify the predictability of the DDI estimated by the PBPK model of tegoprazan, the model-predicted PK profiles, parameters, and fold-increase of parameters were compared with the observed PK data measured in clinical studies (i.e., studies 5 and 6). In the case of study 6, the observed data were generated under the condition of triple administration of tegoprazan, clarithromycin, and amoxicillin. […] When simulating the DDI between tegoprazan and clarithromycin, the PBPK model of clarithromycin available in the SimCYP compound file was used.

Data set [4] can be described thus: PBPK model (SimCYP) prediction of tegoprazan PK. The note with it: estimated from clinical data, single dose 50 mg. The arrangement: species or system human. An excerpt:
A PBPK model of tegoprazan was built and verified by both the bottom-up approach using in vitro data for maintaining a mechanistic PBPK structure and the top-down approach using clinical PK results for maintaining a descriptive structure (Figure 1). The initial PBPK model of tegoprazan was constructed using physicochemical properties (e.g., molecular weight, log P, pKa), in vitro data (e.g., permeability, intrinsic clearance), and in vivo data (e.g., renal clearance) provided by HK inno.N Corp. (Seoul, Korea). The commercially available software SimCYP simulator v19 (SimCYP Limited, Certara, Sheffield, UK) was used to build the PBPK model and to generate the PK simulations. The PBPK-model-predicted PK profiles and parameters of tegoprazan were compared with the observed PK profiles and parameters from previously conducted clinical studies (Supplementary Table S1). The specific model configuration related to absorption, distribution, and elimination is described below.
The advanced dissolution, absorption, and metabolism model was used. The unbound fraction of the drug in enterocytes (fuGut) and the human jejunum effective permeability (Peff,man) were predicted because these values were not routinely measured (Table 1). […]
The elimination of the PBPK model consisted of enzyme kinetic and renal clearance (Table 1). Intrinsic clearances (CLint) of tegoprazan by various CYPs were determined by an in vitro study that measured the fraction of CLint inhibited by adding the inhibitors of CYP1A2, CYP2C9, CYP2C19, CYP2D6, and CYP3A to human liver microsomes (in-house data). […]
The PBPK model of tegoprazan as a single agent was verified using data from clinical studies of single- and multiple-dose administration of different dosages of tegoprazan. To verify the PK predictability of the PBPK model, the model-predicted PK profiles and parameters were compared with the observed PK profiles and parameters measured in clinical studies. […]

Where [5] appears, read: tegoprazan 100 mg BID + clarithromycin 500 mg BID + amoxicillin 1000 mg BID, 7 days.
[6] abbreviates: tegoprazan 100 mg BID alone for 4 days, once on day 5.
Where [7] appears, read: tegoprazan 200 mg QD + clarithromycin 500 mg BID for 5 days, ref NCT02052336.
Where [8] appears, read: tegoprazan 200 mg QD alone for 5 days, ref NCT02052336.
Where [9] appears, read: tegoprazan 100 mg BID with vs without clarithromycin 500 mg BID + amoxicillin 1000 mg BID.
The mark [10] stands for this setting: tegoprazan 200 mg QD with vs without clarithromycin 500 mg BID.

In the case of `Cc1nc2cc(C(=O)N(C)C)cc(O[C@H]3CCOc4cc(F)cc(F)c43)c2[nH]1` [tegoprazan], the CL renal in data set [1] is 21.8 mL/min. The “DDI between tegoprazan and amoxicillin” value in data set [2] is “negligible”. For the same molecule, the entries for the “apparent clearance, DDI study result” value in data set [2] (co-administration of clarithromycin) and in data set [2] (tegoprazan alone) were 6.6 L/h and 17.7 L/h, respectively. Moreover, the “AUCτ Obs.” value in data set [2] (setting [5]) is 16,045.0 μg∙h/L; in data set [2] (setting [6]), 5955.9 µg·h/L; in data set [2] (setting [7]) it was 27,796.4 μg∙h/L; in data set [2] (setting [8]), 10,817.6 μg∙h/L. Further, the “Cmax Obs.” value in data set [2] (setting [5]) was 2285.6 ng/mL; in data set [2] (setting [6]), 1018.4 ng/mL; in data set [2] (setting [7]), 3096.0 ng/mL; in data set [2] (setting [8]), 1868.6 ng/mL. Also, the “Tmax Obs.” value in data set [2] (setting [5]) is reported as 2.50 h; in data set [2] (setting [6]), 1.30 h; in data set [2] (setting [7]), 1.50 h; in data set [2] (setting [8]), 1.00 h. Moreover, the “Fold Increase Obs. AUCR” value in data set [3] (setting [9]) was found to be 2.69; in data set [3] (setting [10]), 2.57. Besides, the “Fold Increase Obs. CmaxR” value stood at 2.24 in data set [3] (setting [9]) and 1.66 in data set [3] (setting [10]). Moreover, the “Q (blood flow between central compartment and SAC)” value in data set [4] is recorded as 24.4 L/h. For the same molecule, the “VSAC (volume of the single adjusted compartment)” value in data set [4] was 0.66 L/kg. Also, the Kp in data set [4] (male, human, oral, read-out: Kp scalar) is 0.33.

The record behind these values is paper PMC8464955, “Prediction of Drug–Drug Interaction Potential of Tegoprazan Using Physiologically Based Pharmacokinetic Modeling and Simulation” (Pharmaceutics, 2021).
